pIC50: −log10 of the molar value.
Assays:
[1] = target: SHP-2 enzyme (Met1-Leu525) (Homo sapiens (Human), UniProt Q06124); test: SHP2 inhibition enzymatic assay; assay type: biochemical; conditions: 0.5 nM SHP-2 activated by 500 nM IRS1 peptide, 75 μM DiFMUP substrate; read-out: SHP2wt-IC50
In short: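 SHP-2 (Met1-Leu525), 0.5 nM, activated with 500 nM IRS1 bis-phosphopeptide, preincubated 30 min with compounds in HEPES pH 7.2 buffer with 5 mM DTT. 75 μM DiFMUP added for 30 min at room temperature, stopped with bpV; fluorescence read. IC50 from four-parameter logistic fit of % inhibition.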

[2] = system: ERK phosphorylation in KYSE-520 cells; test: Phospho-ERK cellular assay; assay type: cell-based; conditions: Homo sapiens, KYSE-520, 2 h, KYSE-520 cells, 2 h at 37° C., phospho-ERK1/2 (Thr202/Tyr204) TR-FRET; read-out: PERK IC50
In short: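 TR-FRET read-out of ERK1/2 Thr202/Tyr204 phosphorylation was taken after overnight antibody incubation at room temperature. Before that, KYSE-520 cells were treated 2 h at 37 °C with compound dilutions and lysed 30 min. Percent inhibition relative to vehicle and cell-free wells was fitted four-parametrically to give IC50.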

Chain of SHP-2 enzyme (Met1-Leu525) (Q06124 1-525): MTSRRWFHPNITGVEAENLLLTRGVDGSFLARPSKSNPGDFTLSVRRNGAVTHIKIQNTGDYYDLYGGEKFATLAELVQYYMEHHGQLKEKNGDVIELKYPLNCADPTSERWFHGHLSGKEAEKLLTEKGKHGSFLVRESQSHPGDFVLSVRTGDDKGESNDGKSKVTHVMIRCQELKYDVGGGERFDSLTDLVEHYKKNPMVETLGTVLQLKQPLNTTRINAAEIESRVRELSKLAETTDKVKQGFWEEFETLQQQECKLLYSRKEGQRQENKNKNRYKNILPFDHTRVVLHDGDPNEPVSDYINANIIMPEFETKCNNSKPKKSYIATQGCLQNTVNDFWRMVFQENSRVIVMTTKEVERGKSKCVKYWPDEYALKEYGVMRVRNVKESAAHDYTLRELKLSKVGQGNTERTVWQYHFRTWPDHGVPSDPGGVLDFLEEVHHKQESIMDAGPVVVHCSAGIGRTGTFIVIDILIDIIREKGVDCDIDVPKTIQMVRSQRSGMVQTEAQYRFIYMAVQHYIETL

| SMILES | pIC50 [1] | pIC50 [2] |
| --- | --- | --- |
| Cc1nc2c(Cl)c(-c3n[nH]c4nc(N5CC[C@@H]6[C@H](C5)[C@@]6(CN)c5ccccc5F)cnc34)ccc2n1C [Example 349, ((1S,6R,7R)-3-(3-(4-chloro-1,2-dimethyl-1H-benzo[d]imidazol-5-yl)-1H-pyrazolo[3,4-b]pyrazin-6-yl)-7-(2-fluorophenyl)-3-azabicyclo[4.1.0]heptan-7-yl)methanamine] | > 6.30 | > 6.00 |
| CN1Cc2c(ccc(-c3n[nH]c4nc(N5CC[C@@H]6[C@H](C5)[C@@]6(CN)c5ccccc5F)cnc34)c2Cl)C1=O [Example 350, 5-(6-((1S,6R,7R)-7-(aminomethyl)-7-(2-fluorophenyl)-3-azabicyclo[4.1.0]heptan-3-yl)-1H-pyrazolo[3,4-b]pyrazin-3-yl)-4-chloro-2-methylisoindolin-1-one] | > 6.30 | > 6.00 |
| NC[C@]1(c2ccccc2F)[C@@H]2CCN(c3cnc4c(-c5ccc6c(=O)n(CCO)ccc6c5F)n[nH]c4n3)C[C@@H]21 [Example 351, 6-(6-((1S,6R,7R)-7-(aminomethyl)-7-(2-fluorophenyl)-3-azabicyclo[4.1.0]heptan-3-yl)-1H-pyrazolo[3,4-b]pyrazin-3-yl)-5-fluoro-2-(2-hydroxyethyl)isoquinolin-1(2H)-one] | > 6.30 | > 6.00 |
| Cn1c(=O)oc2cc(-c3n[nH]c4nc(N5CC[C@@H]6[C@H](C5)[C@@]6(CN)c5ccccc5F)cnc34)ccc21 [Example 353, 6-(6-((1S,6R,7R)-7-(aminomethyl)-7-(2-fluorophenyl)-3-azabicyclo[4.1.0]heptan-3-yl)-1H-pyrazolo[3,4-b]pyrazin-3-yl)-3-methylbenzo[d]oxazol-2(3H)-one] | > 6.30 | > 6.00 |
| NC[C@]1(c2ccccc2F)[C@@H]2CCN(c3cnc4c(-c5cc(F)c(O)cc5F)n[nH]c4n3)C[C@@H]21 [Example 354, 4-(6-((1S,6R,7R)-7-(aminomethyl)-7-(2-fluorophenyl)-3-azabicyclo[4.1.0]heptan-3-yl)-1H-pyrazolo[3,4-b]pyrazin-3-yl)-2,5-difluorophenol] | > 6.30 | > 6.00 |
| NC[C@]1(c2ccccc2F)[C@@H]2CCN(c3cnc4c(-c5ccc(F)c(O)c5F)n[nH]c4n3)C[C@@H]21 [Example 355, 3-(6-((1S,6R,7R)-7-(aminomethyl)-7-(2-fluorophenyl)-3-azabicyclo[4.1.0]heptan-3-yl)-1H-pyrazolo[3,4-b]pyrazin-3-yl)-2,6-difluorophenol] | > 6.30 | > 6.00 |
| CN(C#N)C(=O)c1ccc(-c2n[nH]c3nc(N4CC[C@@H]5[C@H](C4)[C@@]5(CN)c4ccccc4F)cnc23)c(Cl)c1 [Example 356, 4-(6-((1S,6R,7R)-7-(aminomethyl)-7-(2-fluorophenyl)-3-azabicyclo[4.1.0]heptan-3-yl)-1H-pyrazolo[3,4-b]pyrazin-3-yl)-3-chloro-N-cyano-N-methylbenzamide] | > 6.30 | < 5.30 |
| CC(=O)Oc1c(F)cc(-c2n[nH]c3nc(N4CC[C@@H]5[C@H](C4)[C@@]5(CN)c4ccccc4F)cnc23)cc1F [Example 359, 4-(6-((1S,6R,7R)-7-(aminomethyl)-7-(2-fluorophenyl)-3-azabicyclo[4.1.0]heptan-3-yl)-1H-pyrazolo[3,4-b]pyrazin-3-yl)-2,6-difluorophenyl acetate] | > 6.30 | > 6.00 |
| NC[C@]1(c2ccccc2F)[C@@H]2CCN(c3cnc4c(-c5ccc(O)c(C(F)(F)F)c5)n[nH]c4n3)C[C@@H]21 [Example 360, 4-(6-((1S,6R,7R)-7-(aminomethyl)-7-(2-fluorophenyl)-3-azabicyclo[4.1.0]heptan-3-yl)-1H-pyrazolo[3,4-b]pyrazin-3-yl)-2-(trifluoromethyl)phenol] | > 6.30 | > 6.00 |
| NC[C@]1(c2ccccc2F)[C@@H]2CCN(c3cnc4c(-c5ccc6nn(CC(F)(F)F)cc6c5Cl)n[nH]c4n3)C[C@@H]21 [Example 361, ((1S,6R,7R)-3-(3-(4-chloro-2-(2,2,2-trifluoroethyl)-2H-indazol-5-yl)-1H-pyrazolo[3,4-b]pyrazin-6-yl)-7-(2-fluorophenyl)-3-azabicyclo[4.1.0]heptan-7-yl)methanamine] | > 6.30 | > 6.00 |
| CN1C(=O)C(F)(F)c2c1ccc(-c1n[nH]c3nc(N4CC[C@@H]5[C@H](C4)[C@@]5(CN)c4ccccc4F)cnc13)c2Cl [Example 362, 5-(6-((1S,6R,7R)-7-(aminomethyl)-7-(2-fluorophenyl)-3-azabicyclo[4.1.0]heptan-3-yl)-1H-pyrazolo[3,4-b]pyrazin-3-yl)-4-chloro-3,3-difluoro-1-methylindolin-2-one] | > 6.30 | > 6.00 |
| Cn1cc2ccc(-c3n[nH]c4nc(N5CC[C@@H]6[C@H](C5)[C@@]6(CN)c5ccccc5F)cnc34)c(Cl)c2n1 [Example 363, ((1S,6R,7R)-3-(3-(7-chloro-2-methyl-2H-indazol-6-yl)-1H-pyrazolo[3,4-b]pyrazin-6-yl)-7-(2-fluorophenyl)-3-azabicyclo[4.1.0]heptan-7-yl)methanamine] | > 6.30 | > 6.00 |
| Cn1ncc2ccc(-c3n[nH]c4nc(N5CC[C@@H]6[C@H](C5)[C@@]6(CN)c5ccccc5F)cnc34)c(Cl)c21 [Example 364, ((1S,6R,7R)-3-(3-(7-chloro-1-methyl-1H-indazol-6-yl)-1H-pyrazolo[3,4-b]pyrazin-6-yl)-7-(2-fluorophenyl)-3-azabicyclo[4.1.0]heptan-7-yl)methanamine] | > 6.30 | > 6.00 |
| NC[C@]1(c2ccccc2F)[C@@H]2CCN(c3cnc4c(-c5ccc(C(N)=O)cc5F)n[nH]c4n3)C[C@@H]21 [Example 367, 4-(6-((1S,6R,7R)-7-(aminomethyl)-7-(2-fluorophenyl)-3-azabicyclo[4.1.0]heptan-3-yl)-1H-pyrazolo[3,4-b]pyrazin-3-yl)-3-fluorobenzamide] | > 6.30 | > 6.00 |
| Cc1nc(N)ccc1-c1n[nH]c2nc(N3CC[C@@H]4[C@H](C3)[C@@]4(CN)c3ccccc3F)cnc12 [Example 368, 5-(6-((1S,6R,7R)-7-(aminomethyl)-7-(2-fluorophenyl)-3-azabicyclo[4.1.0]heptan-3-yl)-1H-pyrazolo[3,4-b]pyrazin-3-yl)-6-methylpyridin-2-amine] | > 6.30 | > 6.00 |
| Cn1cc2c(Cl)c(-c3n[nH]c4nc(N5CC[C@@H]6[C@H](C5)[C@@]6(CN)c5cc(F)ccc5F)cnc34)ccc2n1 [Example 369, ((1S,6R,7R)-3-(3-(4-chloro-2-methyl-2H-indazol-5-yl)-1H-pyrazolo[3,4-b]pyrazin-6-yl)-7-(2,5-difluorophenyl)-3-azabicyclo[4.1.0]heptan-7-yl)methanamine] | > 6.30 | > 6.00 |
| NC[C@]1(c2ccccc2F)[C@@H]2CCN(c3cnc4c(-c5cc6cc[nH]c(=O)c6cc5Cl)n[nH]c4n3)C[C@@H]21 [Example 370, 6-(6-((1S,6R,7R)-7-(aminomethyl)-7-(2-fluorophenyl)-3-azabicyclo[4.1.0]heptan-3-yl)-1H-pyrazolo[3,4-b]pyrazin-3-yl)-7-chloroisoquinolin-1(2H)-one] | > 6.30 | > 6.00 |

Reference: patent publication US20240109900A1, “AZABICYCLIC SHP2 INHIBITORS” (IRBM S.P.A., priority 2021, published 2024)
